The source of these data is paper PMC10010340, “The Wnt Pathway Inhibitor RXC004 Blocks Tumor Growth and Reverses Immune Evasion in Wnt Ligand–dependent Cancer Models” (Cancer Research Communications, 2022).

Assay [1] concerns HCT116 cells. In words: In vitro glucose uptake. Format: cell-based, human. The conditions noted are these: HCT116, Latrunculin A 500 nmol/L, 48 hours. On the procedure: (§1) SNU-1411, HPAF-II, and HCT116 cells were treated in vitro for 48 hours with RXC004 (100 nmol/L), Latrunculin A (Abcam #ab144290; 500 nmol/L), or DMSO prior to analysis using the Glucose Uptake Glo Assay Kit (Promega #J1341). The ATPlite assay was used to control for cell viability, confirming RXC004 has no effect on proliferation at this 48 hours timepoint.

For assay [2], the system named is SNU-1411 cells. In words: In vitro glucose uptake. Format: cell-based, human. As to conditions: SNU-1411, Latrunculin A 500 nmol/L, 48 hours. On the procedure: as §1
Assay [3] deals with HPAF-II cells. In words: In vitro glucose uptake. Format: cell-based, human. The conditions noted are these: Latrunculin A 500 nmol/L, 48 hours. On the procedure:
as §1

Assay [4] concerns colorectal cancer xenografts with RSPO3 translocations. Also noted: method as in PMID 26257057. As to conditions: cited from earlier work.

As to `C/C1=C/C(=O)O[C@@H]2C[C@@H](CC[C@H](C)/C=C\C=C\CC1)O[C@@](O)([C@@H]1CSC(=O)N1)C2` [Latrunculin A, reference compound], the glucose uptake result in assay [1], in assay [2] and in assay [3] was “blocked glucose uptake” in each case.

Take `Cn1c(=O)c2c(ncn2CC(=O)Nc2ccc(-c3ccccc3)nn2)n(C)c1=O` [ETC-159]: the “duration of tumor regrowth suppression after withdrawal of treatment” value in assay [4] is given as “up to 6 weeks”.
